{
  "source": "patent US9856219B2",
  "about": "“Substituted quinoline compounds as S-nitrosoglutathione reductase inhibitors” (Nivalis Therapeutics, Inc., priority 2010, dated 2018)",
  "key": {"acute DSS-induced IBD": {"test_system": "acute DSS-induced IBD", "experiment": "Acute prophylactic model of DSS-induced IBD", "type": "in vivo, male C57Bl/6 mice", "excerpt": "Acute and chronic models of dextran sodium sulfate (DSS)-induced IBD in mice were used to explore efficacy of GSNORi against this disease. Acute and chronic DSS-induced IBD are widely used and well characterized models that induce pathological changes in the colon similar to those observed in the human disease. In these models and in human disease, epithelial cells within the crypts of the colon are disrupted, leading to dysfunction of the epithelial barrier and the ensuing tissue inflammation, edema, and ulceration. GSNORi therapy may benefit IBD by restoring s-nitrosoglutathione (GSNO) levels, and thus prevent or reverse the epithelial barrier dysfunction. Experimental IBD was induced by administration of DSS in the drinking water of male C57Bl/6 mice (N=8 to 10 mice per group) for 6 consecutive days. GSNORi was dosed orally at doses of 0.1 to 10 mg/kg/day for 10 days starting two days prior to and continuing two days post DSS exposure. Two days post DSS exposure, the effect of GSNORi was assessed in a blinded fashion via endoscopy and histopathology using a five point scale ranging from a score=0 (normal tissue) through a score=4 (ulcerative tissue damage and marked pathological changes). Levels of circulating cytokines involved in inflammatory pathways were also assessed. The effect of GSNORi was compared to vehicle treated controls. The corticosteroid, prednisolone, was used as the positive control in this study and was administered daily at 3 mg/kg/day via oral dosing. Naïve mice (N=5) were also assessed as a normal tissue control."}, "[1]": {"test_system": "cigarette smoke-induced COPD (BALF cells and chemokines)", "experiment": "Acute (4 day) cigarette smoke exposure COPD model", "type": "in vivo, female C57Bl/6 mice", "conditions": "oral 10 mg/kg/day for 7 days", "experimental": "(§1) The efficacy of GSNOR inhibitors was assessed in a mouse model of chronic obstructive pulmonary disease (COPD) induced by short duration (4 days or 11 days) of exposure to cigarette smoke. Infiltration of inflammatory cells into the bronchoalveolar lavage fluid (BALF) and BALF levels of chemokines involved in inflammation and tissue turnover/repair were measured to assess the influences of GSNOR inhibitors on some of the early events associated with the initiation and progression of COPD.\nEfficacy of GSNOR inhibitors against COPD was explored using acute (4 day) and subchronic (11 day) models of cigarette smoke-induced COPD in mice. […] In animal models, changes in lung pathology are only evident after extended (several months) duration of exposure to cigarette smoke, thus making chronic models prohibitive as effective screening tools. […]\nFemale C57Bl/6 mice (N=8 per group) were exposed to cigarette smoke using a whole body exposure chamber. […] The effects of GSNOR inhibitors were assessed by quantitating the numbers of total cells, leukocytes, and leukocytes differentials in the BALF via light microscopy and the levels of BALF chemokines via ELISA at approximately 24 h after the last smoke exposure. […]"}, "[2]": {"test_system": "cigarette smoke-induced COPD (BALF cells)", "experiment": "Subchronic (11 day) cigarette smoke exposure COPD model", "type": "in vivo, female C57Bl/6 mice", "conditions": "for effects compared to positive control roflumilast: roflumilast 5 mg/kg/day", "experimental": "as §1\nEfficacy of GSNOR inhibitors against COPD was explored using acute (4 day) and subchronic (11 day) models of cigarette smoke-induced COPD in mice. […] In animal models, changes in lung pathology are only evident after extended (several months) duration of exposure to cigarette smoke, thus making chronic models prohibitive as effective screening tools. More recently, models exploring inflammatory responses after short duration (2 weeks or less) of smoke exposure in mice have been utilized as tools for screening efficacy and mechanisms of action of novel therapeutics against COPD. The key roles of inflammation in the initiation and progression of COPD, make these short duration models relevant for initial tests of efficacy of novel therapeutics.\nFemale C57Bl/6 mice (N=10 per group) were exposed to cigarette smoke generated from Marlboro 100 cigarettes without filters. Exposure times were 25 min. on study day 1, 35 min. on study day 2, and 45 min. on study days 3 to 11. GSNOR inhibitors were administered one hour prior to smoke exposure on each day. GSNOR inhibitors were dosed orally at 1 to 10 mg/kg/day for 11 days. The effects of GSNOR inhibitors were assessed by quantitating the number of total cells, and leukocytes differentials in the BALF via light microscopy at 24 h after the last exposure. The effect of GSNOR inhibitors were compared to vehicle treated controls and expressed as percent inhibition of the cigarette smoke induced increases in BALF cell numbers. Roflumilast was used as the positive control for the study and was dosed at 5 mg/kg/day. A group of naïve mice (N=10) was exposed to air and dosed with vehicle as a negative control for the study."}, "chronic DSS-induced IBD": {"test_system": "chronic DSS-induced IBD", "experiment": "Chronic treatment model of DSS-induced IBD", "type": "in vivo, male C57Bl/6 mice", "conditions": "oral 10 mg/kg/day for up to 14 consecutive days, treatment regimen; p<0.05", "excerpt": "Acute and chronic models of dextran sodium sulfate (DSS)-induced IBD in mice were used to explore efficacy of GSNORi against this disease. Acute and chronic DSS-induced IBD are widely used and well characterized models that induce pathological changes in the colon similar to those observed in the human disease. In these models and in human disease, epithelial cells within the crypts of the colon are disrupted, leading to dysfunction of the epithelial barrier and the ensuing tissue inflammation, edema, and ulceration. GSNORi therapy may benefit IBD by restoring s-nitrosoglutathione (GSNO) levels, and thus prevent or reverse the epithelial barrier dysfunction.\nExperimental IBD was induced by administration of DSS in the drinking water of male C57Bl/6 mice (N=10 to 12 mice per group) for 6 consecutive days. GSNORi was dosed orally at doses of 10 mg/kg/day for 14 days starting one day after cessation of DSS exposure. Efficacy of GSNORi was assessed in a blinded fashion via endoscopy after 7 days and 14 days of GSNORi dosing and via histopathology after 14 days of GSNORi dosing using a five point scale ranging from a score=0 (normal tissue) through a score=4 (ulcerative tissue damage and marked pathological changes). Levels of circulating cytokines involved in inflammatory pathways were also assessed. […] Naïve mice (N=5) were also assessed as a normal tissue control."}, "[3]": {"conditions": "oral 10 mg/kg/day for 10 consecutive days, prophylactic regimen"}},
  "data": [
    {"smiles": "O=C(O)c1ccc(-c2ccc3cc(O)ccc3n2)cc1", "note": "[Compound 3, 4-(6-hydroxyquinolin-2-yl)benzoic acid]", "values": [
      {"measurement": "circulating inflammatory cytokines", "setting": "acute DSS-induced IBD; oral 0.1, 1, or 10 mg/kg/day for 10 days, prophylactic regimen", "result": "restored circulating inflammatory cytokines towards levels observed in untreated naïve mice"},
      {"measurement": "effects compared to positive control prednisolone", "setting": "acute DSS-induced IBD; prednisolone 3 mg/kg/day oral", "result": "comparable to or greater than those observed for prednisolone"},
      {"measurement": "BALF chemokines", "setting": "[1]", "result": "restored BALF chemokines towards levels observed in naïve mice"},
      {"measurement": "effects compared to positive control roflumilast", "setting": "[1]", "result": "comparable to or greater than those observed for roflumilast"}
    ]},
    {"smiles": "O=C(O)c1ccc(-c2ccc3cc(O)ccc3n2)c(Cl)c1", "note": "[Compound 8, 3-chloro-4-(6-hydroxyquinolin-2-yl)benzoic acid]", "values": [
      {"measurement": "decrease of percent of mice with severe colon injury scores via endoscopy, of vehicle control", "setting": "acute DSS-induced IBD; [3]", "result": 44, "unit": "%"},
      {"measurement": "decrease of percent of mice with severe colon injury scores via histopathology, of vehicle control", "setting": "acute DSS-induced IBD; [3]", "result": 26, "unit": "%"},
      {"measurement": "dose response of effect", "setting": "[2]; oral 1, 5, or 10 mg/kg/day", "result": "no dose response"},
      {"measurement": "effects compared to positive control roflumilast", "setting": "[2]", "result": "comparable to those of roflumilast"}
    ]},
    {"smiles": "O=C(O)c1ccc(-c2ccc3cc(O)ccc3n2)c(F)c1", "note": "[Compound 13, 3-fluoro-4-(6-hydroxyquinolin-2-yl)benzoic acid]", "values": [
      {"measurement": "decrease of percent of mice with severe colon injury scores via endoscopy, of vehicle control", "setting": "chronic DSS-induced IBD", "result": 52, "unit": "%"},
      {"measurement": "decrease of percent of mice with severe colon injury scores via histopathology, of vehicle control", "setting": "chronic DSS-induced IBD", "result": 53, "unit": "%"},
      {"measurement": "effects compared to positive control roflumilast", "setting": "[2]", "result": "comparable to those of roflumilast"}
    ]},
    {"smiles": "Cc1cc(C(=O)O)ccc1-c1ccc2cc(O)ccc2n1", "note": "[Compound 27, 4-(6-hydroxyquinolin-2-yl)-3-methylbenzoic acid]", "values": [
      {"measurement": "effects compared to positive control roflumilast", "setting": "[2]", "result": "comparable to those of roflumilast"}
    ]}
  ]
}
